Experimental data published in patent US8507235B2, “Isoprene production using the DXP and MVA pathway” (Danisco US Inc., priority 2009, dated 2013).
Where “and” joins values, the source holds several entries; their conditions need not be identical. Identical values can stand only once. Like-named read-outs stand apart in the source and are kept apart here.

Experiments:
E. coli strain MCM597 [1] = assay: Carbon sources useful for the production of isoprene (Biolog PM1 plate); format: cell-based; conditions: 0.2% yeast extract, compound as carbon source; normalized to α-D-glucose
E. coli strain MCM597 [2] = assay: Nitrogen sources affecting isoprene production (Biolog PM3B plates); format: cell-based; conditions: 0.5% glucose as sole carbon source, no yeast extract; p<0.1
E. coli strain MCM597 [3] = assay: Carbon sources affecting isoprene production during growth on glucose (Biolog PM1 and PM2A plates); format: cell-based; conditions: 0.5% glucose, 0.2% yeast extract; normalized to control only fed glucose; p<0.1
Dxr from E. coli = target: T1, Dxr from E. coli (Escherichia coli, UniProt P45568); assay: Dxr inactivation by incubation with DMAPP and HDMAPP; format: biochemical; conditions: purified Dxr from E. coli
T1 construct: His tag (pET15b) (N); made in house; host or cells: E. coli BL21(λDE3)
T1 sequence (P45568 whole entry): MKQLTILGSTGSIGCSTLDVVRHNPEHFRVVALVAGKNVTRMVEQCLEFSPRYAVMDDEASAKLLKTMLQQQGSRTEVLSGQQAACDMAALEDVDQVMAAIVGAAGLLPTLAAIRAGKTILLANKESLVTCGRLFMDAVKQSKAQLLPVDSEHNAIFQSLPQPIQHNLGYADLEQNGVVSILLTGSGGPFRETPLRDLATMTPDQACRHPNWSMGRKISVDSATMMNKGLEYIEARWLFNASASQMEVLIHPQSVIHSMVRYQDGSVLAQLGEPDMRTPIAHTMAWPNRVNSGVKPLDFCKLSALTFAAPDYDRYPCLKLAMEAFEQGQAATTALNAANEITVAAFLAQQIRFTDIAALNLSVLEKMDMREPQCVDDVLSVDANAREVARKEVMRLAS
Protocol: The purified protein, 5 uM, was incubated at several concentration of DMAPP or HMBPP (Echelon Bioscience, Salt Lake City, Utah) in buffer consisting of 100 mM Tris, 100 mM NaCl pH 8, 5 mM MgCl2, 0.2 mM NADPH, 0.2 mM DXP, and 250 nM DXR. D at 37° C. for two hour in a total volume of 50 uL. Dxr activity was measured periodically according to standard assay, see, e.g., Koppisch et al, Biochemistry, 41:236-43 (2002) with a 20-fold dilution of the inactivation reaction mixture. […] Where appropriate additional control activity assays were conducted in the presence of a 20-fold diluted concentration of inactivators (DMAPP or HMBPP).

[4] = Flammability limits of isoprene (computer simulation and experimental testing); format: physicochemical
Source text: Thus, computer modeling and experimental testing were used to determine the flammability limits of isoprene (such as isoprene in the presence of O2, N2, CO2, or any combination of two or more of the foregoing gases) in order to ensure process safety. The flammability envelope is characterized by the lower flammability limit (LFL), the upper flammability limit (UFL), the limiting oxygen concentration (LOC), and the limiting temperature. For a system to be flammable, a minimum amount of fuel (such as isoprene) must be in the presence of a minimum amount of oxidant, typically oxygen. The LFL is the minimum amount of isoprene that must be present to sustain burning, while the UFL is the maximum amount of isoprene that can be present. Above this limit, the mixture is fuel rich and the fraction of oxygen is too low to have a flammable mixture. The LOC indicates the minimum fraction of oxygen that must also be present to have a flammable mixture. The limiting temperature is based on the flash point of isoprene and is that lowest temperature at which combustion of isoprene can propagate. These limits are specific to the concentration of isoprene, type and concentration of oxidant, inerts present in the system, temperature, and pressure of the system. […]

REM A2—17 strain [5] = assay: Specific productivity of isoprene of strain REM A2—17 in the presence and absence of fosmidomycin (headspace assay); format: cell-based, E. coli; conditions: 2 mM fosmidomycin; for activity at 2000 µM: Escherichia coli, 0.75 h, read-out: fraction of isoprene produced during exposure to fosmidomycin relative to absence of the inhibitor (MVA-flux)
REM A2—17 strain [6] = assay: Accumulation of DXP and MVA pathway metabolites in REM A2—17 with and without fosmidomycin (LC-MS/MS); format: cell-based, E. coli; conditions: 2 mM fosmidomycin, 45 min. incubation
[7] = system: E. coli BL21 strain harboring the GI1.6-dxr locus; assay: Isoprene production with fosmidomycin in the growth media, GI1.6-dxr strain; format: cell-based; conditions: 1 mM fosmidomycin in the growth media
[8] = system: dxr null E. coli BL21 strain; format: cell-based
[9] = system: strains REM H8—12 and REM I7—11; format: cell-based, E. coli
[10] = about 1 atmosphere and about 60° F.; cited from earlier work
[11] = approx. 45 minutes, unlabeled culture without tryptophan (FIG. 98)

SMILES	specific isoprene production (E. coli strain MCM597 [2])	specific productivity of isoprene (E. coli strain MCM597 [3])	other results
OC[C@H]1O[C@H](O[C@H]2O[C@H](CO)[C@@H](O)[C@H](O)[C@H]2O)[C@H](O)[C@@H](O)[C@@H]1O [D-trehalose]			specific productivity of isoprene (E. coli strain MCM597 [1]): increasing
N[C@@H](CCC(=O)O)C(=O)O [L-glutamic acid]	increasing		
O=C[C@@H](O)[C@@H](O)[C@H](O)[C@H](O)CO [D-mannose]		increasing	
O=NO [nitrite]	did not significantly change		
NC(=O)[C@@H](O)[C@@H](O)[C@H](O)[C@@H](O)C=O [glucuronamide]		increasing	
C[C@@H](O)[C@H](N)C(=O)O [L-threonine]	increasing		
N[C@@H](Cc1ccc(O)cc1)C(=O)O [L-tyrosine]	negatively affecting		
O=C[C@H](O)[C@@H](O)[C@H](O)[C@H](O)COP(=O)(O)O [D-glucose-6-phosphate]			specific productivity of isoprene (E. coli strain MCM597 [1]): increasing
C/C(=C\COP(=O)(O)OP(=O)(O)O)CO [HMBPP, 1-hydroxy-2-methyl-2-(E)-butenyl 4-diphosphate]			Dxr activity after incubation with the compound (Dxr from E. coli): inactivated
CC(O)C(C)O (stereo not drawn) [2,3-butanediol]		increasing	
NC(N)=O [urea]	did not significantly change		
O=[N+]([O-])O [nitrate]	did not significantly change		
CSCC[C@H](N)C(=O)O [L-methionine]	negatively affecting		
N[C@@H](C(=O)O)[C@@H](O)[C@H](O)[C@H](O)CO [D-glucosaminic acid]		increasing	
OC[C@H]1O[C@@H](n2cnc3c(O)ncnc32)[C@H](O)[C@@H]1O [inosine]	increasing	increasing	
C=CC(=C)C [isoprene, 2-methyl-1,3-butadiene]			limiting temperature [4]: about −54 °C; limiting oxygen concentration (LOC) ([4]; isoprene, O2, N2, and CO2 mixture at 40° C. and 1 atmosphere): 9.5 vol %
O=C1O[C@H]([C@@H](O)CO)[C@@H](O)[C@@H]1O [L-galactonic acid-γ-lactone]		increasing	
CCC(=O)O [propionic acid]		increasing	
O=C(O)[C@H](O)[C@@H](O)[C@H](O)[C@H](O)CO [D-gluconic acid]		increasing	
OC[C@H]1O[C@@H](O[C@H]2[C@H](O)[C@@H](O)[C@H](O)O[C@@H]2CO)[C@H](O)[C@@H](O)[C@@H]1O [D-cellobiose]		increasing	
N[C@@H](Cc1ccccc1)C(=O)O [L-phenylalanine]		increasing	

SMILES	specific isoprene production (E. coli strain MCM597 [2])	specific productivity of isoprene (E. coli strain MCM597 [3])	other results
NCCc1ccccc1 [phenylethylamine]		increasing	
N [ammonia]	did not significantly change		
O=CN(O)CCCP(=O)(O)O [fosmidomycin]			decrease in isoprene production with fosmidomycin (DXP-flux) (REM A2—17 strain [5]; 1-13C glucose culture with 50 uM tryptophan (FIG. 98)): 51%; decrease in isoprene production with fosmidomycin (DXP-flux) (REM A2—17 strain [5]; 1-13C glucose culture without tryptophan): 42% and 43%; decrease in isoprene production with fosmidomycin (DXP pathway contribution) (REM A2—17 strain [5]; 3-13C glucose): 43% and ~42%; decrease in isoprene production with fosmidomycin (DXP pathway contribution) (REM A2—17 strain [5]; [11]): ~48%; fraction of isoprene produced during exposure to fosmidomycin relative to absence of the inhibitor (MVA pathway contribution) (REM A2—17 strain [5]; [11]): roughly 52%; fraction of isoprene produced during exposure to fosmidomycin relative to absence of the inhibitor (MVA pathway contribution) (REM A2—17 strain [5]; approx. 45 minutes, unlabeled glucose (FIG. 96)): roughly 59%; decrease in isoprene production with fosmidomycin (DXP pathway contribution) (REM A2—17 strain [5]; approx. 45 minutes, unlabeled glucose (FIG. 96, 97)): 41%; fraction of isoprene produced during exposure to fosmidomycin relative to absence of the inhibitor (MVA pathway contribution) (REM A2—17 strain [5]; approx. 1 hour, 3-13C glucose (FIG. 99)): roughly 58%; activity at 2000 µM (REM A2—17 strain [5]; approx. 45 minutes, 1-13C glucose culture with 50 uM tryptophan (FIG. 98)): 49%; activity at 2000 µM (REM A2—17 strain [5]; approx. 45 minutes, 1-13C glucose culture without tryptophan (FIG. 98)): 57%; DXP concentration (REM A2—17 strain [6]): significant increase; HDMAPP concentration (REM A2—17 strain [6]): decrease; concentration of MEP, CDP-ME and cMEPP (REM A2—17 strain [6]): drop; concentration of MVA (REM A2—17 strain [6]): did not change; decrease of the cumulative amount of IPP and DMAPP (REM A2—17 strain [6]): 55%; isoprene production [7]: undetectable level; isoprene production [8]: same level of isoprene production
N[C@@H](CO)C(=O)O [L-serine]	increasing		
OC[C@H]1O[C@H](O)[C@H](O)[C@@H](O)[C@@H]1O [α-D-glucose]			specific productivity of isoprene (E. coli strain MCM597 [1]): increasing
Nc1nc2c(ncn2[C@@H]2O[C@H](CO)[C@@H](O)[C@H]2O)c(=O)[nH]1 [guanosine]	increasing		
Nc1ncnc2nc[nH]c12 [adenine]	negatively affecting		
NC(=O)C[C@H](N)C(=O)O [L-asparagine]	increasing		
O=C(CO)[C@H](O)[C@H](O)[C@H](O)CO [D-psicose]		increasing	
OC[C@@H](O)[C@@H](O)[C@H](O)[C@H](O)CO [D-mannitol]			specific productivity of isoprene (E. coli strain MCM597 [1]): increasing
O=C(O)C[C@H](O)C(=O)O [L-malic acid]		increasing	
OC[C@H]1O[C@@](CO)(O[C@H]2O[C@H](CO)[C@@H](O)[C@H](O)[C@H]2O)[C@@H](O)[C@@H]1O [sucrose]		increasing	
O=C(O)[C@@H](O)[C@H](O)[C@H](O)[C@@H](O)C(=O)O [mucic acid]		increasing	
C[C@@](O)(CCO)CC(=O)O [mevalonic acid, (R)-mevalonic acid]			isoprene specific productivity from mevalonate (m/z of 67) [9]: increased with increasing mevalonic acid concentration; specific productivity of isoprene from [U-13C]-glucose (m/z of 73) [9]: the same
CCO [ethanol]			limiting oxygen concentration (LOC) [10]: about 8.7 vol %; lower flammability limit (LFL) [10]: about 3.3 vol %
O=C[C@H](O)[C@@H](O)[C@@H](O)[C@H](O)C(=O)O [D-galacturonic acid]		increasing	specific productivity of isoprene (E. coli strain MCM597 [1]): increasing
N[C@@H](CC(=O)O)C(=O)O [L-aspartic acid]	increasing		
CC(=O)N[C@H]1C(O)O[C@H](CO)[C@@H](O)[C@@H]1O (stereo partly drawn) [N-acetyl-D-glucosamine]			specific productivity of isoprene (E. coli strain MCM597 [1]): increasing
O=C(CO)[C@@H](O)[C@H](O)[C@H](O)CO [D-fructose]			specific productivity of isoprene (E. coli strain MCM597 [1]): increasing
NCCO [2-aminoethanol]		increasing	
N[C@@H](Cc1c[nH]c2ccccc12)C(=O)O [L-tryptophan]	increasing		
